# Data: patent publication US12462378B2, “Information processing device, screening device, information processing method, screening method, and program” (Kyoto University, priority 2019, dated 2025)
# Where a SMILES comes first, the peptide text is derived from it. The star is where a group is joined. Cbz = O=C(OCc1ccccc1)*; CH2F = FC*
# Tests used:
# [1] = tested on: nerve cells differentiated from iPS cells; assay: Single cell analysis (single cell RNA sequence, UMAP clustering) of nerve cells with Z-VAD-FMK; format: cell-based, human
# Description: FIG. 15 is a view showing the schematics of a proposed method. As illustrated in the drawing, Z-VAD-FMK is added to nerve cells and changes in gene expression of individual cells are observed before cell death occurs (before caspase-3 activation occurs) (single cell RNA sequence=WHAT in the drawing). At the same time, the images are acquired, and the CNN-based prediction model MDL is used to check where the changes are occurring (WHERE in the drawing). In this manner, a method for identifying the molecules, where and what is occurring before cell death, is proposed.
# Single cell analysis was performed using the above-described proposed method. FIG. 16 is a view illustrating an example of clustering results of cells. While changing the concentration of Z-VAD-FMK added to the nerve cells to 0 [μM], 0.2 [μM], and 25 [μM], the cell population was separated into a total of 15 types of clusters ranging from 0 to 14 by using a visualization method (one type of dimensional compression method) which is called UMAP (uMAP).
# FIG. 22 is a view illustrating a relationship between the Z-VAD-FMK concentration and the cluster size. […] As a result, the cluster 12 was identified as a cluster that satisfies the conditions.
# [2] = tested on: nerve cells differentiated from iPS cells; assay: Prediction model MDL score of nerve cell images versus Z-VAD-FMK concentration; format: cell-based, human; settings: FIG. 14, higher score = greater probability that the cell will survive
# Text: Activated caspase-3 in apoptotic nerve cells was detected by using a fluorogenic substrate consisting of a four-amino acid peptide DEVD (SEQ ID NO: 1) bound to a nucleic acid binding dye (product name “CellEvent Caspase-3/7 Green Detection Reagent”, Thermo Fisher Scientific Inc.). Since the DEVD peptides inhibit the binding of fluorescent dyes to DNA, the above-described fluorogenic substrate is essentially non-fluorescent. However, when activated caspase-3 in dead cells cleaves the DEVD peptide, a fluorescent dye binds to the DNA to cause fluorescence, which can be detected using a standard FITC green filter set of a standard time lapse imaging system (product name “Incucyte ZOOM”, Essen Bioscience, Ltd.) (exposure time 400 ms). Images were photographed over time every 6 hours after drug administration.
# The original size of the single-well image captured by using the time lapse imaging system (product name “Incucyte ZOOM”, Essen Bioscience, Ltd.) was 1,392×1,038 pixels, and four images were cut out from this image and extracted as the cropped image IMGC. The original image was divided evenly into four regions, and square images were taken out from the center of each region. The size of the trimmed cropped image IMGC was selected from 128×128, 256×256, 512×512, 768×768, and 1,020×1,020 in width×height. […]
compound,measurement,setting,value
COC(=O)C[C@H](NC(=O)[C@H](C)NC(=O)[C@@H](NC(=O)OCc1ccccc1)C(C)C)C(=O)CF [Z-VAD-FMK] (Cbz-Val-Ala-Asp(OMe)-CH2F),effect of Z-VAD-FMK concentration on cluster shapes of UMAP expanded cell populations,"[1]; 0, 0.2 and 25 μM Z-VAD-FMK, 15 clusters (0 to 14), FIGS. 16 to 21",no effect on most of the cell populations
same,"cluster size (number of cells in cluster 12, caspase-3 activated)","[1]; cluster 12, with addition of Z-VAD-FMK, FIG. 22",the number of cells in its own cluster decreased with the addition of Z-VAD-FMK
same,score of the prediction model MDL (probabilistic value related to the life or death of cells),[2],"the higher the Z-VAD-FMK concentration, the higher the score"
